Measured values reported in the supplement of paper PMC10307832.

Tests used:
Test in all cases: relative viability (nuclei count vs DMSO), 5 days (fraction); higher = more cells survive
[1] = compound: CC(O)(CS(=O)(=O)c1ccc(F)cc1)C(=O)Nc1ccc(C#N)c(C(F)(F)F)c1 [Bicalutamide] + CC(C)C[C@H](NC(=O)[C@H](Cc1ccccc1)NC(=O)c1cnccn1)B(O)O [Bortezomib] (partner 0.002 µM)
How it was run: (§1)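 Relative viability equals treated-well nuclei counts divided by vehicle-well nuclei counts. Counts came from 4× images of lung cancer cell lines grown in 1536-well plates for 5 days after pin-tool dosing on the day after seeding. Dosing used one drug alone or a fixed anchor-drug dose plus five library-drug doses (not always all listed) in √10 steps, and values are medians of duplicate plates.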

[2] = compound: C(C(=O)C(=O)O)Br [Bromopyruvate] + Cc1nc(NC(=O)N2CCC[C@H]2C(N)=O)sc1-c1ccnc(C(C)(C)C(F)(F)F)c1 [Alpelisib] (partner 2 µM)
How it was run: as §1

[3] = compound: C(C(=O)C(=O)O)Br [Bromopyruvate]
How it was run: (§2)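 Five library-drug doses, separated by factors of √10, were pinned into 1536-well plates holding lung cancer cell lines after an overnight stay at 37 °C. Cells were fixed, permeabilised and Hoechst-stained in one step after 5 days without medium change, then imaged at 4×. Viability compares treated-well with vehicle-well nuclei, counted in MetaXpress, as a median across plates. Passing plates had control CV below 25% and at least one doubling.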

[4] = compound: CC(O)(CS(=O)(=O)c1ccc(F)cc1)C(=O)Nc1ccc(C#N)c(C(F)(F)F)c1 [Bicalutamide]
How it was run: as §2

Row | Cell Line | relative viability ([1]; first compound 0.08 µM) | relative viability ([1]; first compound 0.253 µM) | relative viability ([1]; first compound 0.8 µM) | relative viability ([1]; first compound 2.53 µM) | relative viability ([2]; first compound 1 µM) | relative viability ([2]; first compound 3.162 µM) | relative viability ([2]; first compound 10 µM) | relative viability ([2]; first compound 31.62 µM) | relative viability ([2]; first compound 100 µM) | relative viability ([3]; 1 µM) | relative viability ([3]; 3.162 µM) | relative viability ([3]; 10 µM) | relative viability ([3]; 31.62 µM) | relative viability ([3]; 100 µM) | relative viability ([4]; 0.08 µM) | relative viability ([4]; 0.253 µM) | relative viability ([4]; 0.8 µM) | relative viability ([4]; 2.53 µM)
1 | NCI-H1975 | 0.314 | 0.296 | 0.417 | 0.372 | 0.77 | 0.752 | 0.606 | 0.635 | 0.593 | 1.02 | 0.962 | 1 | 0.939 | 0.906 | 0.935 | 0.942 | 0.998 | 0.775
2 | CAL-12T | 0.942 | 0.858 | 1.12 | 0.768 | 1.17 | 1.49 | 1.38 | 1.25 | 0.952 | 0.972 | 0.982 | 0.919 | 0.982 | 0.956 | 1.03 | 0.855 | 1.11 | 0.842
3 | NCI-H1623 |  |  |  |  |  |  |  |  |  | 1.07 | 0.944 | 1.25 | 0.973 | 0.948 | 0.628 | 0.89 | 0.969 | 0.904
4 | HCC-44 | 0.936 | 0.953 | 0.961 | 0.989 | 0.781 | 0.83 | 0.859 | 0.916 | 0.863 | 1.02 | 0.986 | 0.992 | 1.01 | 0.985 | 1.03 | 0.998 | 0.981 | 1.01
5 | EKVX | 0.994 | 1.1 | 1.37 | 0.952 | 0.875 | 0.815 | 1.01 | 0.86 | 0.943 | 0.988 | 0.973 | 1.06 | 1.01 | 0.969 | 1.02 | 0.984 | 1.09 | 0.914
6 | NCI-H1651 | 0.917 | 0.864 | 1.04 | 0.959 | 0.881 | 1.06 | 0.876 | 0.868 | 0.912 | 1.01 | 0.991 | 1.07 | 0.958 | 0.924 | 0.995 | 0.93 | 1.16 | 0.972
7 | NCI-H1944 |  |  |  |  | 0.8 | 0.85 | 0.904 | 0.821 | 0.858 | 1.02 | 0.995 | 0.967 | 0.904 | 1 | 0.993 | 0.873 | 1.06 | 0.978
8 | NCI-H1703 | 0.374 | 0.427 | 0.317 | 0.204 | 0.364 | 0.347 | 0.294 | 0.345 | 0.33 | 0.914 | 0.981 | 0.955 | 0.94 | 0.778 | 0.941 | 1.01 | 0.983 | 0.738
9 | NCI-H358 |  |  |  |  | 0.812 | 1.08 | 0.819 | 0.69 | 0.721 | 1.03 | 1.02 | 0.939 | 0.909 | 0.929 | 0.988 | 0.865 | 1.13 | 1.06
10 | NCI-H1793 |  |  |  |  | 0.659 | 0.715 | 0.751 | 0.697 | 0.702 | 1.03 | 1.09 | 1.12 | 0.959 | 1.08 | 0.823 | 0.736 | 1.02 | 0.809
11 | ChaGo-K-1 | 0.973 | 1.05 | 1.17 | 0.864 |  |  |  |  |  | 0.979 | 0.995 | 1.07 | 1 | 1.02 | 0.998 | 0.962 | 1.18 | 0.976
12 | NCI-H522 |  |  |  |  |  |  |  |  |  | 1.06 | 0.975 | 0.941 | 0.939 | 0.785 | 1.07 | 0.828 | 0.999 | 0.991
13 | NCI-H1650 | 0.172 | 0.204 | 0.192 | 0.175 |  |  |  |  |  | 0.998 | 0.835 | 0.959 | 0.938 | 0.865 | 0.967 | 0.935 | 1.1 | 0.842
14 | NCI-H1648 |  |  |  |  |  |  |  |  |  | 0.878 | 0.916 | 0.991 | 0.769 | 0.773 |  | 0.662 | 0.93 | 1.2
15 | SK-MES-1 |  |  |  |  | 0.842 | 0.878 | 0.915 | 0.868 | 1.01 | 0.99 | 1.07 | 1.12 | 0.958 | 1.05 | 1.02 | 0.961 | 1.09 | 0.971
16 | NCI-H2342 |  |  |  |  |  |  |  |  |  | 0.975 | 0.912 | 1.02 | 0.949 | 0.903 | 1.06 | 0.978 | 1.07 | 1.03
17 | SW 900 |  |  |  |  |  |  |  |  |  | 0.923 | 0.774 | 0.754 | 0.881 | 0.883 | 0.847 | 0.858 | 0.9 | 0.742
18 | LK-2 |  |  |  |  | 0.565 | 0.991 | 1.14 | 1.16 | 1.22 | 0.98 | 1.02 | 1.11 | 0.936 | 0.832 | 0.961 | 0.825 | 1.31 | 1.02
19 | NCI-H1395 |  |  |  |  | 1.02 | 1.46 | 1.26 | 1.06 | 0.991 | 1.07 | 0.896 | 0.955 | 0.787 | 1.1 | 1.05 | 0.9 | 1.03 | 0.82
20 | A549 |  |  |  |  | 0.814 | 0.971 | 0.834 | 0.794 | 0.726 | 0.942 | 0.969 | 1.18 | 0.95 | 1.06 | 0.974 | 0.875 | 1.16 | 0.973
21 | NCI-H2170 |  |  |  |  | 0.833 | 0.831 | 0.764 | 0.914 | 0.864 | 0.938 | 0.947 | 0.95 | 0.969 | 1.01 | 0.916 | 0.931 | 1.1 | 0.987
